Test in all cases: NCI-60 cell line screen, 48 h
For assay [1], the system named is COLO 205 colon.
The test system of assay [2] is MDA-MB-435.
The test system of assay [3] is EKVX NSCLC.
Assay [4] concerns OVCAR-3 ovarian.
Assay [5] relates to K-562 leukemia.
The subject of assay [6] is NCI-H460 lung.
The subject of assay [7] is IGROV1 ovarian.
Assay [8] deals with SF-295 CNS.
The subject of assay [9] is BT-549 breast.
Assay [10] relates to DU-145 prostate.

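Tested at 5 concentrations; 48 h exposure; 96-well plates; endpoints linearly interpolated, else capped at highest concentration. At the GI50, growth is halved. TGI denotes the concentration required for complete inhibition of growth.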 Where only a bound is given, the exact number is not on record here.

For `C[Si](C)(OCCS(=O)(=O)O)C1S(=O)(=O)OCCOS1(=O)=O`, the TGI in assay [1], in [2], in assay [3], in assay [4], in [5] and in assay [6] was above 100 µM each time. Besides, the TGI in assay [7] was above 100 µM; in [8], 31.8 µM; in assay [9] it was above 100 µM; in [10], above 100 µM.

As for `COc1cccc(-c2cc(=O)c3c(C)ccnc3[nH]2)c1`, the TGI in assay [1] was 0.0854 µM; in [3], above 100 µM; in assay [5], 0.397 µM; in [6], above 34.4 µM; in assay [7], above 100 µM; in assay [8], above 100 µM. In addition, the TGI in [9] is above 100 µM.

Consider `S=C1N=C(Cl)C2(NN1)c1ccccc1-c1ccccc12`, for which the TGI in assay [1], in [3], in assay [5], in assay [6], in [7] and in assay [9] was above 10 µM throughout. In assay [10], this compound had a TGI above 10 µM.

With `CC(=O)Nc1ccc2[nH]c(-c3cccc(F)c3)cc(=O)c2c1`, the TGI is above 65.5 µM in assay [1]; 3.85 µM in assay [2]; above 100 µM in assay [3]; above 100 µM in assay [6]; above 100 µM in assay [7]; above 77.2 µM in [8]. Moreover, the TGI in assay [9] is above 100 µM.

In the case of `COCc1cc2c(cc1/C=C/[N+](=O)[O-])OCO2`, the TGI was 38.4 µM in assay [1]; 33.2 µM in assay [2]; 36.5 µM in assay [3]; 33.7 µM in assay [4]; above 100 µM in assay [5]; 34.3 µM in assay [6]. The TGI was found to be 51.1 µM in assay [7], 36.3 µM in [8] and 34.4 µM in assay [10].

For the compound `C=CC[C@H](C)CCC(=O)N1[C@H]2CC3CC[C@@]2(CS1(=O)=O)C3(C)C`, the TGI in [1], in assay [2], in [3], in assay [6], in assay [7] and in assay [8] was above 100 µM throughout. Also, the TGI in [9] and in assay [10] was above 100 µM each time.

With `O=S1C2=C(Cc3ccccc3)C(Cc3ccccc3)=C1CCc1cccc(c1)CC2`, the TGI was 58.8 µM in assay [1]; 27.5 µM in assay [2]; 26.3 µM in assay [3]; 23.5 µM in assay [4]; above 100 µM in assay [5]; 26.8 µM in assay [6]. Moreover, the figures for the TGI in assay [8], in assay [9] and in assay [10] were 27.1 µM, 27.2 µM and 30.3 µM, respectively.

On to `COC(=O)c1cc(C#Cc2cc(OC)ccc2OC)ccc1OC`, for which the TGI is 52.3 µM in [1]; above 100 µM in assay [2]; above 100 µM in assay [3]; 77.6 µM in assay [4]; above 100 µM in assay [5]; above 100 µM in assay [6]. Moreover, the TGI in assay [7], in [9] and in assay [10] was above 100 µM each time. Further, the figures for the GI50 in [4] and in assay [10] were 13.6 µM and 43.6 µM, respectively.

As for `COC(=O)c1c(C)cccc1/C=C1\Cc2cc(C)cc(C)c2C1=O`, the TGI in assay [3], in [4], in assay [5], in [6], in assay [7] and in [8] was above 100 µM each time. Further, the TGI in assay [9] and in assay [10] was above 100 µM each time.

As for `CCC(=O)O[C@H]1CC[C@H]2[C@@H]3CCC4=C/C(=N/NC(=O)c5cccc6c(=O)c7ccccc7[nH]c56)CC[C@]4(C)[C@H]3CC[C@]12C`, the TGI in assay [1], in assay [2], in assay [3], in assay [4], in assay [5] and in assay [6] was above 25 µM throughout. The TGI in assay [7], in [8] and in [9] was above 25 µM in each case.

Turning to `CC1(C)CC(=O)c2c(nc3ccc4ccccc4c3c2-c2ccc(NC(=O)CCC(=O)Nc3ccc(-c4c5c(nc6ccc7ccccc7c46)CC(C)(C)CC5=O)cc3)cc2)C1`, the TGI in [1], in assay [2], in assay [3], in assay [4], in assay [5] and in assay [6] was above 100 µM throughout. Also, the TGI in assay [7], in [8] and in [10] was above 100 µM each time.

As to `COCCOCCOC1=C(Cl)C(=O)c2c(O)ccc(O)c2C1=O`, the TGI came to 2.45 µM in assay [1]; 3.83 µM in assay [2]; 21.7 µM in assay [3]; 3.19 µM in assay [4]; 29.8 µM in [6]; 7.37 µM in assay [7]. For the same compound, the TGI in assay [8] was determined as 27.1 µM; in [9], 4.01 µM; in assay [10] it was 22.4 µM.

Regarding `C[C@H](O)C1CC(Cn2nnc3c(N)ncnc32)C1(C)C` (some centres not stated), the TGI in [2] is above 100 µM; in assay [3], above 100 µM; in [4], above 100 µM; in assay [5], 0.0411 µM; in [8], above 100 µM; in assay [10] it was above 100 µM.

For the compound `O=C(CC(C(=O)c1ccoc1)c1ccco1)c1ccco1` (configuration not stated), the TGI in [1], in [2], in [3], in assay [4], in assay [5] and in [6] was above 100 µM in each case. For the same compound, the TGI in assay [7], in [8] and in [10] was above 100 µM in each case.

For `CCOc1cc(NC(C)=O)ccc1C(=O)NN1C(=O)/C(=C/c2cc(OC)c(OC)c(OC)c2)N=C1c1ccccc1`, the TGI in [1], in assay [2], in assay [3], in assay [4], in [5] and in assay [6] was above 100 µM in each case. Further, the results for the TGI in [7], in assay [8] and in [9] were above 100 µM, above 100 µM and 69.2 µM, respectively.

The values above are taken from PubChem BioAssay (NCI).
